{"source": "patent US11517578B1", "about": "“Topical formulations containing erythritol and methods of treating skin conditions” (InnoMed Technologies, Inc., priority 2021, dated 2022)", "tested_on": "facial acne", "assay": "Topical treatment of facial acne in patients (case examples 1-3)", "format": "in vivo, human", "details": "patient history: OTC benzoyl peroxide gels and washes tried before the formulation", "text": "In this example, a person visits a healthcare professional and complains of facial acne that has been persistent for the past three years. They describe sporadic facial breakouts that began gradually, varied in severity and never completely cleared. They explain that the breakouts contribute to feelings of low self-esteem.\nThe healthcare professional administers the formulation of erythritol and zinc to the patient. As detailed in Table 2, the formulation includes erythritol (3.75%) and zinc chloride (1.25%). The formulation allows for effective transdermal administration of the zinc chloride-erythritol mixture which can prevent or ameliorate bacterial growth at or near skin pores and hair follicles.\nThe patient is also advised to continue daily use of an OTC facial wash. After washing and rinsing the face, the patient applies the formulation to the entire face. After five to ten minutes, the face can be rinsed with water. The routine is repeated each day (i.e., twice per day). Within ten days, the acne is resolved by about 80% (i.e., about 80% of the acne is gone). The comedones, papules and pustules are less apparent and only visible at close proximity. The patient resumes twice daily use of the formulation. Within two weeks the signs/symptoms of acne are resolved by about 95%. The patient has a clear complexion. […]", "note": "Entries after “also recorded” stand apart in the source; their conditions may differ."}
{"smiles": "O=C(OOC(=O)c1ccccc1)c1ccccc1", "note": "[benzoyl peroxide]", "values": [{"measurement": "improvement of facial acne", "result": "without improvement; also recorded: minimal or no significant improvement"}]}
